Columns and labels:
[1] = target: T1, Nuclear receptor ROR-gamma (Homo sapiens, UniProt P51449)
T1 sequence (P51449 whole entry): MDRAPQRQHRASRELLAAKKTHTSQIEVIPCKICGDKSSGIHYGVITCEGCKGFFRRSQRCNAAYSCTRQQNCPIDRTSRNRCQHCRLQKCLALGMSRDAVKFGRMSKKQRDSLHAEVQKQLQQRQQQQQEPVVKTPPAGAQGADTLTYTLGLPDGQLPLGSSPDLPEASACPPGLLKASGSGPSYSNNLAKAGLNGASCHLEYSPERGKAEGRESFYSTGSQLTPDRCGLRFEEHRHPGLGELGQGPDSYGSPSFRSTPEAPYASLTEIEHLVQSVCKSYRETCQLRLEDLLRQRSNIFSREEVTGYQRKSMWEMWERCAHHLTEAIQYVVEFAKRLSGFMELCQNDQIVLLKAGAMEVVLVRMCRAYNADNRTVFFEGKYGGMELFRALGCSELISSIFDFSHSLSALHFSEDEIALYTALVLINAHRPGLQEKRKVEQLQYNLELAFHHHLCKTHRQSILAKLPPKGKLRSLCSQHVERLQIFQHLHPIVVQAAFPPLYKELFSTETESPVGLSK
Description: Inverse agonist activity at N-terminal 6xHis-tagged human RORc ligand binding domain (241 to 486) expressed in bacterial expression system assessed as inhibition of SRC1 co-activator peptide recruitment after 3 hrs by TR-FRET analysis

[2] = target: T1, Nuclear receptor ROR-gamma; remark: listed apart in the source
Description: Displacement of [3H2]-25-hydroxycholesterol from N-terminal 6xHis-tagged human RORc ligand binding domain (241 to 486) expressed in bacterial expression system after 3 hrs by scintillation counting analysis

PBMC [3] = assay: Cytotoxicity against human PBMC assessed as effect on cell physiology after 48 hrs by CellTiter-Glo assay
PBMC [4] = assay: Inhibition of IFNgamma production in human PBMC after 48 hrs by Sandwich ELISA
PBMC [5] = assay: Antiinflammatory activity in human PBMC assessed as inhibition of IL-17 production after 48 hrs by Sandwich ELISA relative to control; assay type: functional
PBMC [6] = assay: cells; conditions: Homo sapiens, 48 h

| SMILES | EC50 [1] | IC50 [2] | further results |
| --- | --- | --- | --- |
| O=C(Nc1ccc(C(O)(C(F)(F)F)C(F)(F)F)cc1)c1ccccc1 | > 10000 nM | > 10000 nM | – |
| COC(c1ccc(N(CC(F)(F)F)S(=O)(=O)c2ccccc2)cc1)(C(F)(F)F)C(F)(F)F | 9000 nM | 900 nM | – |
| O=C(O)CCN(c1ccc(C(O)(C(F)(F)F)C(F)(F)F)cc1)S(=O)(=O)c1ccccc1 | > 10000 nM | > 10000 nM | – |
| O=S(=O)(c1cccnc1)N(CC(F)(F)F)c1ccc(C(O)(C(F)(F)F)C(F)(F)F)cc1 | 1000 nM | 748 nM | – |
| O=S(=O)(C1CC1)N(CC(F)(F)F)c1ccc(C(O)(C(F)(F)F)C(F)(F)F)cc1 | – | 5000 nM | – |
| O=S(=O)(Nc1ccc(C(O)(C(F)(F)F)C(F)(F)F)cc1)c1ccccc1 | – | > 10000 nM | – |
| CS(=O)(=O)CCN(c1ccc(C(O)(C(F)(F)F)C(F)(F)F)cc1)S(=O)(=O)c1ccccc1 | > 10000 nM | > 10000 nM | – |
| CC(=O)NCCN(c1ccc(C(O)(C(F)(F)F)C(F)(F)F)cc1)S(=O)(=O)c1ccccc1 | > 10000 nM | > 10000 nM | – |
| O=S(=O)(c1ccccc1)N(CC(F)(F)F)c1ccc(CO)cc1 | > 10000 nM | > 10000 nM | – |
| N#Cc1ccccc1S(=O)(=O)N(CC(F)(F)F)c1ccc(C(O)(C(F)(F)F)C(F)(F)F)cc1 | 920 nM | 520 nM | – |
| CC(=O)Nc1nc(C)c(S(=O)(=O)Nc2ccc(C(O)(C(F)(F)F)C(F)(F)F)cc2)s1 | 911 nM | 2000 nM | – |
| O=S(=O)(c1ccccc1)N(CCC(F)(F)F)c1ccc(C(O)(C(F)(F)F)C(F)(F)F)cc1 | 4000 nM | 519 nM | – |
| O=C(O)c1ccc(N(CC(F)(F)F)S(=O)(=O)c2ccccc2)cc1 | > 10000 nM | > 10000 nM | – |
| O=C(Nc1ccc(C(O)(C(F)(F)F)C(F)(F)F)cc1)c1ccc(C(F)(F)F)cc1 | > 10000 nM | > 10000 nM | – |
| CCN(c1cccc(C(O)(C(F)(F)F)C(F)(F)F)c1)S(=O)(=O)c1ccccc1 | 900 nM | 329 nM | – |
| O=S(=O)(c1ccccc1)N(CC(F)(F)F)c1ccc(C(O)(C(F)(F)F)C(F)(F)F)cc1 [T091317] | – | – | EC50 (PBMC [3]): > 20000 nM; EC50 (PBMC [4]): > 20000 nM; Imax (PBMC [5]): 81%; EC50 (PBMC [6]): 3000 nM |
| Cc1ccc(S(=O)(=O)N(CC(F)(F)F)c2ccc(C(O)(C(F)(F)F)C(F)(F)F)cc2)cc1 | 20 nM | 51 nM | – |
| O=C(c1ccccc1)N(CC(F)(F)F)c1ccc(C(O)(C(F)(F)F)C(F)(F)F)cc1 | 4000 nM | 2000 nM | – |
| N#Cc1cccc(S(=O)(=O)N(CC(F)(F)F)c2ccc(C(O)(C(F)(F)F)C(F)(F)F)cc2)c1 | 100 nM | 190 nM | – |
| O=S(=O)(Cc1ccccc1)N(CC(F)(F)F)c1ccc(C(O)(C(F)(F)F)C(F)(F)F)cc1 | > 2000 nM | 520 nM | – |
| O=S(=O)(c1ccccc1)N1CCc2cc(C(O)(C(F)(F)F)C(F)(F)F)ccc21 | 5000 nM | 883 nM | – |
| COCCN(c1ccc(C(O)(C(F)(F)F)C(F)(F)F)cc1)S(=O)(=O)c1ccccc1 | > 10000 nM | 3000 nM | – |
| O=S(=O)(c1ccccc1)N(Cc1ccccc1)c1ccc(C(O)(C(F)(F)F)C(F)(F)F)cc1 | 8000 nM | 467 nM | – |
| NS(=O)(=O)c1ccc(N(CC(F)(F)F)S(=O)(=O)c2ccccc2)cc1 | > 10000 nM | 9000 nM | – |
| NC(=O)c1ccc(N(CC(F)(F)F)S(=O)(=O)c2ccccc2)cc1 | > 10000 nM | > 10000 nM | – |
| O=S(=O)(c1ccccc1)N(CCO)c1ccc(C(O)(C(F)(F)F)C(F)(F)F)cc1 | 1000 nM | 4000 nM | – |
